Laboratory results from patent US20240418701A1, “SINGLE MOLECULE IDEN[…] A REACTIVE HETERO-NANOPORE” (priority 2021, published 2024).

How the values were obtained:
[1] = target: T1, MspA-PBA (boronic acid appended hetero-octameric MspA) (Mycolicibacterium smegmatis, UniProt A0QR29, D117C/D118N/D120N/D145R/D161R/E166K); experiment: Single channel recording of alditol binding to MspA-PBA nanopore (standards and zero-sugar drinks); parameters: species or system Mycobacterium smegmatis; conditions: N=3; for ratio (mean current percentage blockage) / std (standard deviation of the blocking level): alditol 4 mM (glycerol 8 mM) in cis
T1 construct: H6 (hexa-histidine) (C); 3-(maleimide) phenylboronic acid (MPBA) adduct on the thiol of Cys90; made in house; host or cells: E. coli BL21 (DE3) pLysS, co-expression from pETDuet-1
Protocol: FIG. 88: Definition of event parameters. (a) A representative electrophysiology trace containing nanopore events. Xylitol was treated as the model analyte. I0 is the open pore current and Ib is the residual current caused by alditol blockade. ratio is derived from (I0−Ib)/I0, which is defined as the percentage blockage. τoff represents the dwell time of an event. τon represents the inter-event interval. std is the standard deviation value of the blockage level. (b-c) The histogram plot of ratio (b) and std (c) acquired from a continually recorded trace. The histograms were Gaussian fitted and the peaks of the fitting results respectively represent the mean value of ratio and the mean std. (d-e) The histogram plots of τoff (d) and τon (e) acquired from a continually recorded trace. The histogram plots were respectively fit to a single exponential curve, according to the equation y=a*exp (−x/τ), from which the mean event dwell time (τoff) (d) and the mean inter-event interval (τon) (e) were respectively derived. If not otherwise stated, all results in this manuscript were described by event parameters defined above.
All subsequent nanopore measurements were carried out with a 1.5 M KCl buffer (1.5 M KCl, 10 mM 3-(N-Morpholino) propanesulfonic acid (MOPS), pH 7.0) and a +100 m V continually applied potential (Method 1 in Example 3). 13 types of alditols, which were derived from the reduction of the carbonyl group of C3-C6 monoaldoses were treated as model polyols (FIGS. 77b and 83). The PBA of MspA-PBA can complex with a polyol, forming a cyclic ester at the pore constriction and resulting in the corresponding nanopore event being reported. All alditols were added to the cis side of the pore and the final concentration of alditols was set at 4 mM with the exception of glycerol, which was set at 8 mM instead. […] In addition, single molecule sensing of glycerol and D-Sorbitol by MspA-PBA are as shown in FIGS. 104 and 105, respectively.
To describe the sensing events quantitatively, event parameters such as the open-pore current (I0), the current blockade (Ib), the percentage blockage (ratio), the event dwell time (τoff), the inter-event intervals (τon) and the standard deviation value of the blockage level (std) were defined as described in FIG. 88. The percentage blockage, also referred to for simplicity as ratio, is defined as (I0−Ib)/I0.
Quantitatively, the reciprocal of the mean inter-event interval (1/τon, N=3) is linearly correlated with the alditol concentration, consistent with a bimolecular model. The mean event dwell time τoff (N=3) however is independent of the alditol concentration, and this is consistent with a unimolecular dissociation mechanism (FIGS. 89e-92e, Table 18). […] The binding constant for borate cyclic ester formation for alditols increases as the number of hydroxyl groups in the alditol increases (FIG. 77c and Table 18), consistent with conclusions drawn previously from the corresponding NMR measurements.^52 Nanopore measurements were also performed with different applied voltages. […] This is expected because all alditols tested in this paper are electrically neutral and the formation of a borate ester is independent of the local electric field.
All nanopore measurements were performed as described previously.^1,2 Briefly, the measurement device has two custom chambers separated by a thick Teflon film containing a drilled (˜100 μm) aperture. Before the measurement, the aperture was first treated with 0.5% (v/v) hexadecane in pentane and set for pentane evaporation. Electrolyte buffer (500 μL) was added to the electrically grounded chamber (cis chamber) and the opposing chamber (trans chamber). All nanopore measurements in this paper were performed with a 1.5 M KCl buffer (1.5 M KCl, 10 mM MOPS, pH 7.0). Two custom-made Ag/AgCl electrodes were placed in both chambers in contact with the buffers and the patch-clamp amplifier to form a closed circuit. […]

Octameric M2 MspA = target: T2, Octameric M2 MspA (Mycolicibacterium smegmatis, UniProt A0QR29, D117N/D118N/D120N/D145R/D161R/E166K); experiment: Alditol sensing using M2 MspA nanopore (control without PBA); format: binding, Mycobacterium smegmatis; conditions: alditol 4 mM in cis, +100 mV
T2 construct: made in house; host or cells: E. coli BL21 (DE3)
Protocol: FIG. 87: Alditol sensing using M2 MspA nanopore. Glycerol, erythritol, xylitol and sorbitol were used as the representative alditols with different number of hydroxyl groups. All measurements were carried out as described in Methods 1 in Example 3. Octameric M2 MspA was applied as the nanopore sensor. A transmembrane potential of +100 m V was continually applied. Each alditol was added to cis with a final concentration of 4 mM.
The octameric M2 MspA was used as a control in FIG. 87. It was expressed with E. coli BL21 (DE3) and purified by nickel affinity chromatography as reported previously.^1

[2] = target: T3, MspA-PBA (phenylboronic acid modified hetero-octameric (N90C)1(M2)7 MspA) (Mycolicibacterium smegmatis, UniProt A0QR29, D117C/D118N/D120N/D145R/D161R/E166K); format: binding, Mycobacterium smegmatis; conditions: +200 mV
T3 construct: H6 (hexa-histidine) (C); 3-(maleimide) phenylboronic acid (MPBA) adduct on the thiol of Cys90; made in house; host or cells: E. coli BL21 (DE3) pLysS, co-expression from pETDuet-1
Protocol: FIG. 46: Definition of event parameters. […] The measurement was carried out as described in Methods in Example 2. The chambers were filled with a 1.5 M KCl buffer (1.5 M KCl, 10 mM MOPS, pH 7.0). A transmembrane potential of +200 mV was continually applied. AMP was added to cis with a final concentration of 300 μM. The open pore current (Ip), the residual current (Ib), the dwell time (τoff) and the inter-event duration (τon) are defined as marked on the trace. The percentage blockage (% Ib) is defined as (Ip−Ib)/Ip. The noise amplitude (S.D.) is defined as the standard deviation of the blockage level.
NMPs consist of a ribose, a phosphate group and a nucleobase, serving as monomeric units of RNA. […] Experimentally, single channel recording was performed using MspA-PBA in a 1.5 M KCl buffer (1.5 M KCl, 10 mM MOPS, pH 7.0) (Methods in Example 2). A transmembrane potential of +200 mV was continually applied. Four canonical NMPs, adenine mononucleotide (AMP), guanine mononucleotide (GMP), cytosine mononucleotide (CMP) and uracil mononucleotide (UMP) were tested as analytes (FIG. 33d). Either type of NMP was added to cis at a final concentration of 300 μM. Subsequently, successive resistive pulses caused by either type of NMP were immediately observed (FIG. 33d). However, no events were observed when M2 MspA was tested, confirming that the PBA located at the pore constriction is critical in the generation of NMP sensing events (FIG. 44). At this condition, ˜1800 events/h were obtained from each pore. The pore could normally withstand a few hours of continuous measurement. Deoxyribonucleoside monophosphate (dNMP) fails to report any event when sensed by MspA-PBA (FIG. 45). This is expected because dNMPs have no cis-diol structure and can't form the boronate ester which is necessary for sensing. The molecular mechanism of sensing which results from reversible covalent bond formation between an NMP and the PBA at the pore constriction is thus confirmed.
To describe NMP sensing events quantitatively, the event dwell time (τoff), the inter-event interval (τon), the percentage blockage (% Ib=(Ip−Ib)/Ip) and the noise amplitude (S.D.) were derived as described in FIG. 46. Generally, the histograms of τoff and τon show an exponential distribution, and could be fitted to derive the mean time constants τoff or τon, respectively. The histograms of % Ib and S.D. show a Gaussian distribution, which could be fitted to derive the mean percentage blockage % Ib and S.D., respectively. During NMP sensing, by varying the NMP concentrations in cis, the reciprocal of dwell time (1/τoff) remains constant, consistent with a unimolecular dissociation mechanism. Whereas the reciprocal of the inter-event interval (1/τon) linearly correlates with the NMP concentration in cis (Tables 8-11, FIG. 47-50), consistent with a bimolecular model. The dependence of the applied voltage during NMP sensing was investigated using AMP as a representative analyte. […] This is expected because in a pH 7.0 buffer, the phosphate group of NMP is negatively charged and the electrophoretic force applied on the NMP analyte can strongly regulate the rate of event appearance and the event dwell time.

T1 sequence (A0QR29 other isoform, or with tags, fused parts or gaps D117N/D118N/D120N/D145R/D161R/E166K): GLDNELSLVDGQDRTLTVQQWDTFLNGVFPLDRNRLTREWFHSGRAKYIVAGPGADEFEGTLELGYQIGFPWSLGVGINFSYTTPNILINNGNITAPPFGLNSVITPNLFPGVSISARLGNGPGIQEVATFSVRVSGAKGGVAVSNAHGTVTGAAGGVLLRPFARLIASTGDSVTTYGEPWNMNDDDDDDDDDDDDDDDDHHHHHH
T1 sequence (A0QR29 other isoform, or with tags, fused parts or gaps D117C/D118N/D120N/D145R/D161R/E166K): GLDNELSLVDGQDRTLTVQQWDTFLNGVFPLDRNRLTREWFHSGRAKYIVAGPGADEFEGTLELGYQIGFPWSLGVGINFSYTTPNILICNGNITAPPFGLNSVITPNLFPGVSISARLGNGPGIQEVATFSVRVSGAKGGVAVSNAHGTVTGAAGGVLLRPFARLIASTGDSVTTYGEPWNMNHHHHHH
T2 sequence (A0QR29 28-211 D117N/D118N/D120N/D145R/D161R/E166K): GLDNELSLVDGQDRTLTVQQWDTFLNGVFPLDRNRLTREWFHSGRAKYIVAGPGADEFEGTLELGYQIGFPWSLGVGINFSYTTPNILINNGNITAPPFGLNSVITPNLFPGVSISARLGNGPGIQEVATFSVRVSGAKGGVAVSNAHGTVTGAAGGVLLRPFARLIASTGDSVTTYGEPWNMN

With OC[C@@H](O)[C@H](O)[C@@H](O)CO [xylitol] the “ratio (mean current percentage blockage)” value ([1]; +100 mV) was 25.70±0.10%, the “std (standard deviation of the blocking level)” value ([1]; +100 mV) was 6.28±0.07 pA and the 1/τon ([1]; alditol 2 mM in cis, +100 mV) was 0.42 ± 0.02 s⁻¹. For the same molecule, the τoff ([1]; alditol 2 mM in cis, +100 mV) was 515.3 ± 43.5 ms, the 1/τon ([1]; alditol 4 mM in cis, +100 mV) was 0.84 ± 0.04 s⁻¹ and the τoff ([1]; alditol 4 mM in cis, +100 mV) was 496.3 ± 18.6 ms. It also gave a 1/τon ([1]; alditol 6 mM in cis, +100 mV) of 1.3 ± 0.1 s⁻¹, a τoff ([1]; alditol 6 mM in cis, +100 mV) of 461.1 ± 13.4 ms and a 1/τon ([1]; alditol 8 mM in cis, +100 mV) of 1.71 ± 0.03 s⁻¹. The τoff ([1]; alditol 8 mM in cis, +100 mV) was 474.6 ± 21.2 ms, the 1/τon ([1]; voltage series: +60 mV, glycerol 12 mM, other alditols 8 mM) was 1.66 ± 0.02 s⁻¹ and the 1/τon ([1]; voltage series: +80 mV, glycerol 12 mM, other alditols 8 mM) was 1.69 ± 0.02 s⁻¹. For the same molecule, the 1/τon ([1]; voltage series: +100 mV, glycerol 12 mM, other alditols 8 mM) was 1.70 ± 0.03 s⁻¹, the 1/τon ([1]; voltage series: +120 mV, glycerol 12 mM, other alditols 8 mM) was 1.68 ± 0.04 s⁻¹ and the “binding events with M2 MspA” value (Octameric M2 MspA) was “No binding events were observed”.
For O=c1[nH]cc([C@@H]2O[C@H](COP(=O)(O)O)[C@@H](O)[C@H]2O)c(=O)[nH]1 [Ψ, Pseudouridine-5′-monophosphate], the “% Ib (percentage blockage)” value ([2]; NMP 300 μM in cis, N=3) was 10.2 ± 0.2%, the “S.D. (noise amplitude of blockage level)” value ([2]; NMP 300 μM in cis, N=3) was 2.40 ± 0.05 pA and the “τoff (mean dwell time)” value ([2]; NMP 300 μM in cis, N=3) was 36.9 ± 3.4 ms. The “τon (mean inter-event interval)” value ([2]; NMP 300 μM in cis, N=3) was 2047.7 ± 283.8 ms and the “Calibration coefficient δ (NMP binding events per unit concentration per min)” value ([2]; sole NMP 300 μM in cis, three independent measurements) was 0.099 ± 0.014 µM⁻¹ min⁻¹.
With OC[C@@H](O)[C@@H](O)[C@@H](O)[C@@H](O)CO [allitol] the “ratio (mean current percentage blockage)” value ([1]; +100 mV) was 27.57 ± 0.06% and the “std (standard deviation of the blocking level)” value ([1]; +100 mV) was 4.64 ± 0.03 pA.
For OC[C@@H](O)[C@H](O)[C@H](O)[C@H](O)CO [talitol], the “ratio (mean current percentage blockage)” value ([1]; +100 mV) was 27.3 ± 0.2% and the “std (standard deviation of the blocking level)” value ([1]; +100 mV) was 6.33 ± 0.06 pA.
For OC[C@@H](O)[C@H](O)CO [threitol], the “ratio (mean current percentage blockage)” value ([1]; +100 mV) was 20.3 ± 0.2% and the “std (standard deviation of the blocking level)” value ([1]; +100 mV) was 5.84 ± 0.18 pA.
For OC[C@@H](O)[C@@H](O)[C@H](O)[C@H](O)CO [mannitol], the “ratio (mean current percentage blockage)” value ([1]; +100 mV) was 29.2 ± 0.3% and the “std (standard deviation of the blocking level)” value ([1]; +100 mV) was 3.09 ± 0.17 pA.
For OC[C@@H](O)[C@H](O)[C@H](O)[C@@H](O)CO [dulcitol], the “ratio (mean current percentage blockage)” value ([1]; +100 mV) was 28.9 ± 0.3% and the “std (standard deviation of the blocking level)” value ([1]; +100 mV) was 5.22 ± 0.06 pA.
In the case of OC[C@@H](O)[C@H](O)[C@@H](O)[C@H](O)CO [iditol], the “ratio (mean current percentage blockage)” value ([1]; +100 mV) was 29.3 ± 0.2% and the “std (standard deviation of the blocking level)” value ([1]; +100 mV) was 6.64 ± 0.03 pA.
With Nc1ncnc2c1ncn2[C@H]1C[C@H](O)[C@@H](COP(=O)(O)O)O1 [dAMP, 2′-deoxyadenosine-5′-phosphate] the “sensing events with MspA-PBA” value ([2]; analyte 1 mM in cis) was “no dAMP sensing events were observed”.
In the case of OC[C@@H](O)[C@@H](O)[C@@H](O)CO [adonitol], the “ratio (mean current percentage blockage)” value ([1]; +100 mV) was 24.13 ± 0.15% and the “std (standard deviation of the blocking level)” value ([1]; +100 mV) was 3.83 ± 0.07 pA.
OC[C@@H](O)C(O)[C@H](O)CO [arabitol] was tested, and the “ratio (mean current percentage blockage)” value ([1]; +100 mV) was 25.13 ± 0.15% and the “std (standard deviation of the blocking level)” value ([1]; +100 mV) was 4.71 ± 0.03 pA.
For OC[C@@H](O)[C@H](O)[C@@H](O)[C@@H](O)CO [L-sorbitol], the “ratio (mean current percentage blockage)” value ([1]; +100 mV) was 30.77 ± 0.06% and the “std (standard deviation of the blocking level)” value ([1]; +100 mV) was 5.97 ± 0.04 pA.
